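All cell lines were grown in 96-well plates and treated with compound for 48 hours. Abbreviation: GI50, concentration required for 50% inhibition of growth. TGI denotes the concentration required for complete inhibition of growth.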
Tests used:
Test in all cases: inhibition of tumour cell growth, NCI panel, 48 h
[1] = test system: BT-549 breast
[2] = test system: SNB-75 CNS
[3] = test system: NCI/ADR-RES ovarian
[4] = test system: OVCAR-8 ovarian
[5] = test system: SNB-19 CNS
[6] = test system: HCC-2998 colon
[7] = test system: HS 578T breast
[8] = test system: HCT-15 colon
[9] = test system: NCI-H460 lung
[10] = test system: MDA-MB-435
[11] = test system: HCT-116 colon
[12] = test system: NCI-H23 lung
[13] = test system: RPMI-8226 leukemia
[14] = test system: SW-620 colon
[15] = test system: MDA-MB-231 breast
[16] = test system: SK-MEL-5 melanoma
[17] = test system: NCI-H226 lung
[18] = test system: SK-OV-3 ovarian
[19] = test system: SF-268 CNS
[20] = test system: IGROV1 ovarian
[21] = test system: SK-MEL-28 melanoma
[22] = test system: OVCAR-3 ovarian
[23] = test system: PC-3 prostate
[24] = test system: RXF 393 renal
[25] = test system: ACHN renal
[26] = test system: LOX IMVI melanoma
[27] = test system: HL-60(TB) leukemia
[28] = test system: DU-145 prostate
[29] = test system: MOLT-4 leukemia
[30] = test system: TK-10 renal
[31] = test system: MCF7 breast
[32] = test system: UO-31 renal
[33] = test system: SF-539 CNS
[34] = test system: KM12 colon
[35] = test system: 786-0 renal
[36] = test system: COLO 205 colon
[37] = test system: T-47D breast
[38] = test system: UACC-257 melanoma
[39] = test system: SK-MEL-2 melanoma
[40] = test system: A498 renal
[41] = test system: CAKI-1 renal
[42] = test system: HT29 colon
[43] = test system: HOP-92 NSCLC
[44] = test system: A549 NSCLC
[45] = test system: UACC-62 melanoma
[46] = test system: U251 CNS
[47] = test system: M14 melanoma
[48] = test system: SN12C renal
[49] = test system: HOP-62 NSCLC
[50] = test system: CCRF-CEM leukemia
[51] = test system: MALME-3M melanoma
[52] = test system: OVCAR-5 ovarian
[53] = test system: SR leukemia
[54] = test system: K-562 leukemia
[55] = test system: OVCAR-4 ovarian
[56] = test system: NCI-H522 lung

CCCCCCNC(=O)c1nc(-c2ccccc2)oc1Cc1ccc(OP(=O)(O)O)cc1
GI50 [1]: 16.8 µM
TGI [1]: 32.7 µM
GI50 [2]: 13.1 µM
TGI [2]: 29.2 µM
GI50 [3]: 20.3 µM
TGI [3]: 42 µM
GI50 [4]: 20.2 µM
TGI [4]: 45.6 µM
GI50 [5]: 22 µM
TGI [5]: > 100 µM
GI50 [6]: 18.2 µM
TGI [6]: 33.4 µM
GI50 [7]: 18.7 µM
TGI [7]: 54.8 µM
GI50 [8]: 17.8 µM
TGI [8]: 37.2 µM
GI50 [9]: 20.2 µM
TGI [9]: 43 µM
GI50 [10]: 16.4 µM
TGI [10]: 30.5 µM
GI50 [11]: 17.1 µM
TGI [11]: 32.6 µM
GI50 [12]: 16.7 µM
TGI [12]: 35.4 µM
GI50 [13]: 20.4 µM
TGI [13]: 49 µM
GI50 [14]: 16.8 µM
TGI [14]: 33.4 µM
GI50 [15]: 17.2 µM
TGI [15]: 36.6 µM
GI50 [16]: 16.8 µM
TGI [16]: 30.7 µM
GI50 [17]: 17 µM
TGI [17]: 33.5 µM
GI50 [18]: 20 µM
TGI [18]: 47.6 µM
GI50 [19]: 17.3 µM
TGI [19]: 35.4 µM
GI50 [20]: 15.2 µM
TGI [20]: 31.2 µM
GI50 [21]: 15.9 µM
TGI [21]: 30.1 µM
GI50 [22]: 17.1 µM
TGI [22]: 31.4 µM
GI50 [23]: 17.9 µM
TGI [23]: 34.5 µM
GI50 [24]: 16.7 µM
TGI [24]: 31.3 µM
GI50 [25]: 15.5 µM
TGI [25]: 29.5 µM
GI50 [26]: 16.4 µM
TGI [26]: 30.2 µM
GI50 [27]: 25.2 µM
TGI [27]: 62.4 µM
GI50 [28]: 10.2 µM
TGI [28]: 22.3 µM
GI50 [29]: 20.9 µM
TGI [29]: 54.8 µM
GI50 [30]: 16.9 µM
TGI [30]: 32.9 µM
GI50 [31]: 15.3 µM
TGI [31]: 29.9 µM
GI50 [32]: 12.6 µM
TGI [32]: 26.8 µM
GI50 [33]: 16.9 µM
TGI [33]: 32.2 µM
GI50 [34]: 17.5 µM
TGI [34]: 33.2 µM
GI50 [35]: 17.9 µM
TGI [35]: 35.4 µM
GI50 [36]: 17 µM
TGI [36]: 31.2 µM
GI50 [37]: 16.5 µM
TGI [37]: 30.8 µM
GI50 [38]: 17.6 µM
TGI [38]: 35.6 µM
GI50 [39]: 19 µM
TGI [39]: 37.1 µM
GI50 [40]: 12.5 µM
TGI [40]: 25.1 µM
GI50 [41]: 15.8 µM
TGI [41]: 33.6 µM
GI50 [42]: 19.5 µM
TGI [42]: 37.8 µM
GI50 [43]: 14.2 µM
TGI [43]: 27.9 µM
GI50 [44]: 18 µM
TGI [44]: 36 µM
GI50 [45]: 14 µM
TGI [45]: 27.9 µM
GI50 [46]: 15.7 µM
TGI [46]: 29.9 µM
GI50 [47]: 18 µM
TGI [47]: 35.5 µM
GI50 [48]: 17 µM
TGI [48]: 32.9 µM
GI50 [49]: 17.4 µM
TGI [49]: 32.3 µM
GI50 [50]: 24 µM
TGI [50]: 67 µM
GI50 [51]: 19.3 µM
TGI [51]: 37 µM
GI50 [52]: 14.6 µM
TGI [52]: 28.5 µM
GI50 [53]: 21.5 µM
TGI [53]: 50.2 µM
GI50 [54]: 22.6 µM
TGI [54]: 64 µM
GI50 [55]: 16.6 µM
TGI [55]: 30.8 µM
GI50 [56]: 16.1 µM
TGI [56]: 34.5 µM
